According to patent US6211244A, “Calcium receptor-active compounds” (priority 1995, dated 2001):
Like-named read-outs stand apart in the source and are kept apart here.

Biological target: T1, human calcium receptor (Homo sapiens, UniProt P41180, R990G)
T1 construct: expressed in transfected cells; host or cells: HEK 293
T1 sequence (P41180 20-1078 R990G): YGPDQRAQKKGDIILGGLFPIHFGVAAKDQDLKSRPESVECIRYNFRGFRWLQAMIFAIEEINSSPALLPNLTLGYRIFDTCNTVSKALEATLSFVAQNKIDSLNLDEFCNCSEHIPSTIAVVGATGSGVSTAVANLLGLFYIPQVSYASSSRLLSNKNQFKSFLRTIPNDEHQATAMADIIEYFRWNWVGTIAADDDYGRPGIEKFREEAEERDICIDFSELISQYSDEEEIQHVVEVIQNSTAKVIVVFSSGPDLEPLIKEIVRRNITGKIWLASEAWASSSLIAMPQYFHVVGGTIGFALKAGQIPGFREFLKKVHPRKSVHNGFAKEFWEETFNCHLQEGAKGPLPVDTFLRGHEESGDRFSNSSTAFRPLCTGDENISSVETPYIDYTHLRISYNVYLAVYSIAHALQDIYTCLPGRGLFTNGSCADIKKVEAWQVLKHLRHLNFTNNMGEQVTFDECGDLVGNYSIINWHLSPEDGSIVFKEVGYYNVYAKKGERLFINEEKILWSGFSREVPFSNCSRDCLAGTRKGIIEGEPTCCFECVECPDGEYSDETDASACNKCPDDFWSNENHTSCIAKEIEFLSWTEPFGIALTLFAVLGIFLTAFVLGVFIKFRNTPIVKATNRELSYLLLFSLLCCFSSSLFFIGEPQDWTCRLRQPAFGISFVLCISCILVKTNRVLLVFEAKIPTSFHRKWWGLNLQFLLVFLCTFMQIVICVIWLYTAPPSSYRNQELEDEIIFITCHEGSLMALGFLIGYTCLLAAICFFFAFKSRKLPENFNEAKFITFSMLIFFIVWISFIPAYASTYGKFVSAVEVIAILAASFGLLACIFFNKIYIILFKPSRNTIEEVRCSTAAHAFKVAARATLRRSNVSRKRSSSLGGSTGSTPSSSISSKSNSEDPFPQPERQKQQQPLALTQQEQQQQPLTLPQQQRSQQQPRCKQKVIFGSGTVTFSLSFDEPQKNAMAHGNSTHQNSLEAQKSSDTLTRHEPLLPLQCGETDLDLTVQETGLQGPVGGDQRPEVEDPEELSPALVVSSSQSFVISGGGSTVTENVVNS
Assay: increases in [Ca^2+ ]i in HEK-293 cells expressing the human calcium receptor (fura-2 loaded HEK 293/pHuPCaR4.0 cells), % activity
Format: cell-based
Details: for activity at […]: HEK293

| Compound | % activity (33 ng/mL) [%] | % activity (330 ng/mL) [%] | % activity (3300 ng/mL) [%] | % activity | activity at […] (33 ng/mL) [%] | activity at […] (330 ng/mL) [%] |
| --- | --- | --- | --- | --- | --- | --- |
| COc1cccc(C(C)NCc2ccc3ccccc3c2)c1 (centres unmarked) [Compound 10P] | 74 | 102 |  |  |  |  |
| CC(NC(C)c1cccc2ccccc12)c1ccc2c(c1)-c1ccccc1-2 (centres unmarked) [Compound 10Q] | 84 | 100 | 103 |  |  |  |
| CC(NC(C)c1cccc2ccccc12)c1ccc2c(c1)-c1ccccc1-2 (centres unmarked) [Compound 10R] | 42 | 82 |  |  |  |  |
| CC(NC1CC1c1ccccc1)c1cccc2ccccc12 (centres unmarked) [Compound 10V] | 62 | 99 |  |  |  |  |
| C=CCOc1cccc([C@@H](C)NCc2ccc3ccccc3c2)c1 [Compound 10Z] | 51 | 96 |  |  |  |  |
| CCOC(=O)COc1cccc([C@@H](C)NCc2ccc3ccccc3c2)c1 [Compound 11D] | 50 | 96 |  |  |  |  |
| COc1cccc([C@@H](C)NCc2cccc(OCc3ccccc3)c2)c1 [Compound 11W] | 44 | 81 |  |  |  |  |
| CC(C)c1ccc(CN[C@H](C)c2cccc3ccccc23)cc1.Cl [Compound 11X, N-(4-Isopropylbenzyl)-(R)-1-(1-naphthyl)ethylamine hydrochloride] | 76 | 100 |  |  |  |  |
| COc1cccc([C@@H](C)NCc2ccc(C(C)C)cc2)c1 [Compound 11Y] | 61 | 103 |  |  |  |  |
| COc1cccc([C@@H](C)NCC=Cc2ccc(C)cc2)c1 [Compound 12B, (R)-N-[3-(4-methylphenyl)prop-2-enyl]-1-(3-methoxyphenyl)ethylamine] | 56 | 110 | 130 |  |  |  |
| COc1cccc([C@@H](C)NCC=Cc2ccccc2C)c1 [Compound 12C, (R)-N-[3-(2-methylphenyl)prop-2-enyl]-1-(3-methoxyphenyl)ethylamine] | 98 | 125 | 134 |  |  |  |
| COc1cccc([C@@H](C)NCC=Cc2c(C)cc(C)cc2C)c1 [Compound 12D, (R)-N-[3-(2,4,6-trimethylphenyl)prop-2-enyl]-1-(3-methoxyphenyl)ethylamine] | 52 | 109 | 128 |  |  |  |
| COc1cccc([C@@H](C)NCC=Cc2ccc(C(C)C)cc2)c1 [Compound 12E, (R)-N-[3-(4-isopropylphenyl)prop-2-enyl]-1-(3-methoxyphenyl)ethylamine] | 73 | 121 | 117 |  |  |  |
| COc1cccc([C@@H](C)NCC=Cc2ccc(C)cc2C)c1 [Compound 12F, (R)-N-[3-(2,4-dimethylphenyl)prop-2-enyl]-1-(3-methoxyphenyl)ethylamine] | 101 | 110 | 118 |  |  |  |
| COc1cccc([C@@H](C)NCC=Cc2cccc(C)c2)c1 [Compound 12G, (R)-N-[3-(3-methylphenyl)prop-2-enyl]-1-(3-methoxyphenyl)ethylamine] | 81 | 139 | 139 |  |  |  |
| COc1cccc([C@@H](C)NCc2cccc(Oc3ccccc3)c2)c1 [Compound 12H] | 94 | 115 | 114 |  |  |  |
| C[C@@H](NCc1ccc(OCc2ccccc2)cc1)c1cccc2ccccc12 [Compound 12I] | 93 | 111 | 115 |  |  |  |
| CC(NCc1cccc(OCc2ccccc2)c1)c1cccc2ccccc12 (centres unmarked) [Compound 12J] | 113 | 130 | 131 |  |  |  |
| C[C@@H](NCc1ccccc1)c1cccc2ccccc12 [Compound 12L] |  | 88 |  | 45 |  |  |
| COc1cccc(C(C)NCc2ccc(C=Cc3ccccc3)cc2)c1 (centres unmarked) [Compound 12M] | 56 | 86 | 98 |  |  |  |
| C[C@@H](NCc1ccc(C(C)(C)c2ccccc2)cc1)c1cccc2ccccc12 [Compound 12N] | 102 | 106 | 115 |  |  |  |
| COc1cccc([C@@H](C)NCc2ccc(C(C)(C)c3ccccc3)cc2)c1 [Compound 12O] | 94 | 117 | 110 |  |  |  |
| COc1cccc([C@@H](C)NCCCc2ccc(C(C)C)cc2)c1 [Compound 12Y] | 46 | 80 |  |  |  |  |
| CC(NC(C)c1ccc(C(C)(C)C)cc1)c1ccccc1 (centres unmarked) [Compound 13E] | 40 | 94 | 123 |  |  |  |
| CC(N[C@H](C)c1ccc2ccccc2c1)c1ccc(C(C)(C)C)cc1 (some centres unmarked) [Compound 13F] | 85 | 122 | 125 |  |  |  |

| Compound | % activity (33 ng/mL) [%] | % activity (330 ng/mL) [%] | % activity (3300 ng/mL) [%] | % activity | activity at […] (33 ng/mL) [%] | activity at […] (330 ng/mL) [%] |
| --- | --- | --- | --- | --- | --- | --- |
| C[C@@H](NCc1cccc(Cl)c1)c1cccc2ccccc12 [Compound 13M] | 66 | 92 |  |  |  |  |
| CCc1ccc(CN[C@H](C)c2cccc3ccccc23)cc1 [Compound 13N] | 88 | 114 |  |  |  |  |
| C[C@@H](NCc1ccc(Cl)cc1)c1cccc2ccccc12 [Compound 13O] | 94 | 115 |  |  |  |  |
| Cc1ccc(CN[C@H](C)c2cccc3ccccc23)cc1 [Compound 13P] | 83 | 110 |  |  |  |  |
| C[C@@H](NCc1ccc(Cl)c(Cl)c1)c1cccc2ccccc12 [Compound 13R] | 98 | 132 |  |  |  |  |
| C[C@@H](NCc1ccc(F)cc1)c1cccc2ccccc12 [Compound 13T] | 53 | 90 |  |  |  |  |
| COc1ccc(CN[C@H](C)c2cccc3ccccc23)cc1 [Compound 13U] | 79 | 108 |  |  |  |  |
| C[C@@H](NCc1ccc(N(C)C)cc1)c1cccc2ccccc12 [Compound 13V] | 79 | 110 |  |  |  |  |
| C[C@@H](NCc1ccc([N+](=O)[O-])cc1)c1cccc2ccccc12 [Compound 13W] | 71 | 109 |  |  |  |  |
| COc1cccc([C@@H](C)NC[C@@H](C)c2ccc(CC(C)C)cc2)c1 [Compound 13Y] | 2 | 47 | 106 |  |  |  |
| CC(C)Cc1ccc(C(C)CNC(C)c2cccc3ccccc23)cc1 (centres unmarked) [Compound 13Z] | 22 | 54 | 93 |  |  |  |
| Cc1ccc(CNC(C)c2ccc(C(C)(C)C)cc2)cc1 (centres unmarked) [Compound 14B] | 11 | 55 | 75 |  |  |  |
| CC(NCCc1ccccc1)c1ccc(C(C)(C)C)cc1 (centres unmarked) [Compound 14H] | 5 | 49 | 112 |  |  |  |
| CCN(CCCc1ccccc1)C(C)c1ccc(C(C)(C)C)cc1 (centres unmarked) [Compound 14I] | 11 |  | 80 | 45 |  |  |
| CC(c1ccc(C(C)(C)C)cc1)N(C)CCCc1ccccc1 (centres unmarked) [Compound 14J] | 6 | 41 | 55 |  |  |  |
| CC(C)c1ccc([C@@H](C)N[C@H](C)c2cccc3ccccc23)cc1 [Compound 14L] |  |  |  |  | 78 | 109 |
| C[C@@H](NCCc1ccccc1)c1cccc2ccccc12 [Compound 14N] | 55 | 89 |  |  |  |  |
| C[C@@H](N[C@H](C)c1cccc2ccccc12)c1ccccc1 [Compound 14O] | 102 | 119 | 119 |  |  |  |
| CC(NC(C)c1cccc2ccccc12)c1ccccc1 (centres unmarked) [Compound 14P] | 78 | 103 | 112 |  |  |  |
| C[C@@H](N[C@H](C)c1cccc2ccccc12)c1cccc(Cl)c1 [Compound 14Q] | 78 | 101 |  |  |  |  |
| CC(NC(C)c1cccc2ccccc12)c1ccc(Cl)cc1 (centres unmarked) [Compound 14S] | 105 | 106 | 116 |  |  |  |
| COc1cccc(C(C)NC(C)c2cccc3ccccc23)c1 (centres unmarked) [Compound 14Z] | 82 | 103 | 118 |  |  |  |
| COc1cccc(CCNC(C)c2cccc3ccccc23)c1 (centres unmarked) [Compound 15I] | 75 | 93 | 111 |  |  |  |
| COc1ccc(CCNC(C)c2cccc3ccccc23)cc1 (centres unmarked) [Compound 15J] | 64 | 75 | 80 |  |  |  |
